8 molecules from US7041785B1, “B1-bradykinin receptor antagonists and use thereof” (Université de Sherbrooke, priority 1996, dated 2006) can be followed below.

Molecules are shown by their SMILES. Non-standard residues stand in square brackets, D forms with d. Residues, ends and D or L forms follow the SMILES beside them. Oic = O=C(O)[C@@H]1C[C@@H]2CCCC[C@@H]2N1; d2Nal = N[C@H](Cc1ccc2ccccc2c1)C(=O)O; Hyp = O=C(O)[C@@H]1C[C@@H](O)CN1; dTic = O=C(O)[C@H]1Cc2ccccc2CN1; 2Thi = N[C@@H](Cc1cccs1)C(=O)O

One data set deals with T1, human B1 receptor (Homo sapiens, UniProt P46663).
T1 sequence (P46663 1-353): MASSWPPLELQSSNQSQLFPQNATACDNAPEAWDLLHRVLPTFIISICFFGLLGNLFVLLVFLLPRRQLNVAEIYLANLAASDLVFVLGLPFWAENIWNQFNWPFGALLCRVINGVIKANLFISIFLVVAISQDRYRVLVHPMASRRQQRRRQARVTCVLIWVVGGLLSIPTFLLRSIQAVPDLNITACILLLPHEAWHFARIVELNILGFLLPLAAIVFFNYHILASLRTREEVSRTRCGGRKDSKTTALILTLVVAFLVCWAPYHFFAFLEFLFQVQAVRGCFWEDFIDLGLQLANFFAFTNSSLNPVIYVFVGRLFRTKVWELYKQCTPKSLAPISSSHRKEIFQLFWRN
The data set is described as follows: cell-based. The note with it: Human umbilical vein B1 receptor pA2, vs desArg9BK, HOE140 400 nmol/L present. The source says:
(§1) Tissues were taken from New Zealand white rabbits (1.5–2.5 kg) and Dunken Hartley guinea pigs (250–350 g) of either sex, killed by stunning and exsanguination. Umbilical cords were taken from healthy women 22–40 years old after spontaneous delivery at term. The rabbit jugular vein (RbJV), the guinea pig ileum (GPI), two preparations containing B2 receptors, the rabbit aorta (RbA) (B1 receptor) and the human umbilical vein (HUV), a mixed preparation containing both B1 and B2 receptors^10, were used. Helical strips of RbJV treated with 1 μmol/L of captopril to avoid peptide degradation by the angiotensin-converting enzyme (ACE), alias kininase II were prepared according to Gaudreau et al.^11 Helical strips of RbA devoid of endothelium were prepared according to Furchgott and Bhadrakom^12. Longitudinal segments of GPI were prepared with the procedure described by Rang^13. Helical strips of HUV were prepared according to Gobeil et al.^10. The tissues were suspended in 10-ml organ baths containing warm (37EC), oxygenated (95% O2–5% CO2) Krebs solution of the following composition in mmol/L; NaCl: 118.1; KCl: 4.7; CaCl26H2O: 2.5; KH2PO4: 1.2; MgSO47H2O: 1.18; NaHCO3: 25.0 and D-Glucose: 5.5. The RbA and the HUV were stretched with an initial tension of 2 g, whereas the RbJV and the GPI were loaded with 0.5 g. Changes of tension produced by the various agents were measured with Grass isometric transducers (model FT 03C, Grass Instrument Co., Quincy, Mass.). […] Before testing the drugs, the tissues were allowed to equilibrate for 60–120 min during which time the tissues were repeatedly washed and the tension readjusted every 15 min.
(§2) At the beginning of each experiment, a submaximal dose of bradykinin (BK) (9 nmol/L), was applied repeatedly on the RbJV, the GPI or the HUV to ensure that tissues responded with stable contractions. […] A similar protocol was used for the HUV.
(§3) Repeated applications of a singl and double concentration of BK (on RbJV, GPI and HUV) and of desArg^9BK (RbA and HUV) were made in the absence and in presence of the various peptides to evaluate their apparent affinities as antagonists, in terms of pA2 (-log10 of the molar concentration of antagonist that reduces the effect of a double concentration of agonist to that of a single one)^14. The antagonists were applied 10 min before measuring the myotropic effects of either BK (the B2 receptor agonist) or desArg^9BK (the B1 receptor agonist). […] All kinin antagonists were initially applied to tissues at concentration of 10 μg/mL to measure their potential agonistic activities (α^E) in comparison with BK (in the B2 receptor preparations) or desArg^9BK (in the B1 receptor preparations).

Data set [1] deals with T2, B2 receptor (Cavia porcellus, UniProt O70526).
T2 sequence (O70526 1-372): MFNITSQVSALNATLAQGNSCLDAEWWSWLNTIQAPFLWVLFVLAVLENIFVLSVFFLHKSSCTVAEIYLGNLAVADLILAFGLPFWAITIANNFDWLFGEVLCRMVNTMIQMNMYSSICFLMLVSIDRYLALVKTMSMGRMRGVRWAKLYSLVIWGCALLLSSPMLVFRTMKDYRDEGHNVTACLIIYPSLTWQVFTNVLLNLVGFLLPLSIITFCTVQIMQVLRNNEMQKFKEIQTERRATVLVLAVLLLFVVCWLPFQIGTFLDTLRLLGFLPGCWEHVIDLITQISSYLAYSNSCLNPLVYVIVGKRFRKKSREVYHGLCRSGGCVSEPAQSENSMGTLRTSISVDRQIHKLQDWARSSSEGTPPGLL
Description: cell-based. The note with it: for G.P.I. pA2: vs BK, Inactive = no detectable antagonistic effect at ≦ 10 μg/ml, F.ag. full agonist, P.ag. partial agonist.
Description: as §1, §2, §3

The target of data set [2] is T3, B2 receptor (Oryctolagus cuniculus, UniProt Q28642).
T3 sequence (Q28642 1-367): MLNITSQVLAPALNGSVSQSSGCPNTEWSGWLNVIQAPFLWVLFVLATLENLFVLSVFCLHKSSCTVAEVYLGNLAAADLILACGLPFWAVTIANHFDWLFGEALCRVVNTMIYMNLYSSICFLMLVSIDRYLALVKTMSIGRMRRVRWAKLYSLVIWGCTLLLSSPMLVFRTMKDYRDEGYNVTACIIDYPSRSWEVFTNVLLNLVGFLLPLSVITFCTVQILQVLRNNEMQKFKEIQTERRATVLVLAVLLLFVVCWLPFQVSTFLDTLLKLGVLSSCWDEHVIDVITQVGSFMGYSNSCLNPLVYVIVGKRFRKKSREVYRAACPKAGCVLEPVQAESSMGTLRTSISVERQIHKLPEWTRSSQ
The following applies: vs BK; captopril 1 μmol/L; Inactive = no detectable antagonistic effect at ≦ 10 μg/ml.

Data set [3] deals with T4, angiotensin-converting enzyme (ACE).
T4 construct: purified angiotensin-converting enzyme (ACE) from rabbit lungs; purchased Sigma, St-Louis, Mo; host or cells: purified from rabbit lungs
The data set is described as follows: Metabolic degradation by purified angiotensin-converting enzyme, HPLC analysis. It counts as in vitro ADME, rabbit. The note with it: rabbit, isolated enzyme ace, pH 7.5. How it is done: The metabolic stability of various kinin-related peptides was evaluated by incubating the peptide in the presence of purified angiotensin-converting enzyme (ACE) from rabbit lungs (purchased from Sigma, St-Louis, Mo.) dissolved in phosphate buffered saline (PBS) (50 mmol/L, pH 7.5 containing 300 mmoL/L NaCl); the final concentration of enzyme was 45 μg/mL. The experimental protocol for the measurement of ACE activity has been described elsewhere^15,16. Briefly, 200 μmol/L of peptides (40 μL) were placed in a PBS buffer and incubated for 5 min at 37EC before adding 8.5 μL of ACE (total volume of the reaction medium; 190 μL). Samples were withdrawn at 30 min intervals, immersed in boiling water for 5 min, then cooled on ice and centrifuged (5 min) before proceeding to analysis of peptides by high pressure liquid chromatography (HPLC). Results of ACE metabolism are expressed in percent of kinin degradation following the incubation (30 min) of kinin substrates with the enzyme.
Pure peptides and metabolic products were analysed by reverse-phas HPLC on a C18 μBondapak column (4.6 mm×25 cm) (Waters) of 10-μm particle size. The peptides and their fragments were eluted at the rate of 2.0 mL/min. with a linear gradient ranging from 5 to 65% of acetonitrile/TFA 0.05%/water over 20 min. at room temperature. The elution positions of these peptides were determined by following the absorbance at 214 nm. For each assay, 50 μL of the reaction medium (treated or not with ACE) were extracted and injected into the column. Concentrations of the peaks products, different from the peaks of the peptide substrate, were estimated using a computer software program (Baseline 810; Waters) that controlled also all the chromatography operations. Isolated metabolites and substrates were collected and identified by Electrospray mass spectrometry (positive mode).

In data set [4] the target is T3, B2 receptor. The data set is described as follows: cell-based.
Description: as §1, §2, §3

The target in the next data set is T5, B1 receptor (Oryctolagus cuniculus, UniProt P48748).
T5 sequence (P48748 1-352): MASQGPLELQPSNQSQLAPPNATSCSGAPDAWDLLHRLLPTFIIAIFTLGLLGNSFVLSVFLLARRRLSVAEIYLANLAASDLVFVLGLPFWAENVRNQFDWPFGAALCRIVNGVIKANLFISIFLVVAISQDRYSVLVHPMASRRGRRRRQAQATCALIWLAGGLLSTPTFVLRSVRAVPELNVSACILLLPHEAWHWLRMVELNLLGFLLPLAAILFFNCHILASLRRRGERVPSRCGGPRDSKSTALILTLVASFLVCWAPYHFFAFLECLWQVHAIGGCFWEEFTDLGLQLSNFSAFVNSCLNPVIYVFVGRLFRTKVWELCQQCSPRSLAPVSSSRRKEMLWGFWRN
Description: cell-based. The following applies: Rb.A. pA2, apparent affinity as antagonist vs desArg9BK; antagonist applied 10 min before; Inactive = no detectable antagonistic effect at ≦ 10 μg/ml.
Description: as §1, §2, §3

Turning to `CC[C@H](C)[C@H](NC(=O)[C@@H](Cc1ccc2ccccc2c1)NC(=O)[C@H](CO)NC(=O)[C@H](Cc1ccccc1)NC(=O)CNC(=O)[C@@H]1CCCN1C(=O)[C@@H]1CCCN1C(=O)[C@H](CCCN=C(N)N)NC(=O)[C@H](CCCCN)NC(C)=O)C(=O)O` [AcLys(D-βNal^7, Ile^8)desArg^9BK] (Ac-KRPPGFS[d2Nal]I-OH), the Kb on human B1 receptor was 3.24 nM.

With `CC(C)C[C@H](NC(=O)[C@@H]1CCCN1C(=O)[C@H](CO)NC(=O)[C@H](Cc1ccccc1)NC(=O)CNC(=O)[C@@H]1CCCN1C(=O)[C@@H]1CCCN1C(=O)[C@H](CCCNC(=N)N)NC(=O)[C@@H](N)CCCCN)C(=O)O` [Compound 2, Lys(Leu^8)desArg^9BK, reference compound], the “G.P.I. pA2” value on B2 receptor [1] is “Inactive”. In addition, the “Rb.J.V. pA2” value on B2 receptor [2] is reported as “Inactive”. Also, in data set [3], the metabolised at 0.5 h, 42.1 μmol/L is 74 ± 2%.

On to `N=C(N)NCCC[C@@H](N)C(=O)N[C@@H](CCCNC(=N)N)C(=O)N1CCC[C@H]1C(=O)N1C[C@H](O)C[C@H]1C(=O)NCC(=O)N[C@@H](Cc1ccccc1)C(=O)N[C@@H](CO)C(=O)N[C@H](Cc1ccccc1)C(=O)N[C@@H](Cc1ccccc1)C(=O)O` [Compound 6, D-Arg(Hyp^3, D-Phe^7)desArg^9BK] (H-[dR]RP[Hyp]GFS[dF]F-OH; N-terminus and C-terminus assumed), for which the figures for the Kb at B2 receptor [4], on B1 receptor and at B2 receptor [1] were 2340 nM, 363 nM and above 8910 nM, respectively.

Take `CC(C)C[C@H](NC(=O)[C@@H](Cc1ccccc1)NC(=O)[C@H](CO)NC(=O)[C@H](Cc1ccccc1)NC(=O)CNC(=O)[C@@H]1C[C@@H](O)CN1C(=O)[C@@H]1CCCN1C(=O)[C@H](CCCNC(=N)N)NC(=O)[C@H](N)CCCNC(=N)N)C(=O)O` [Compound 7, D-Arg(Hyp^3, D-Phe^7, Leu^8)desArg^9BK] (H-[dR]RP[Hyp]GFS[dF]L-OH; N-terminus and C-terminus assumed): the Kb at B2 receptor [4] is 2090 nM; at B1 receptor, 275 nM. Also, the “G.P.I. pA2” value on B2 receptor [1] is “Inactive”.

In the case of `CC(C)C[C@H](NC(=O)[C@H]1Cc2ccccc2CN1C(=O)[C@H](CO)NC(=O)[C@H](Cc1ccccc1)NC(=O)CNC(=O)[C@@H]1CCCN1C(=O)[C@@H]1CCCN1C(=O)[C@H](CCCNC(=N)N)NC(=O)[C@@H](N)CCCCN)C(=O)O` [Compound 10, Lys(D-Tic^7, Leu^8)desArg^9BK] (H-KRPPGFS[dTic]L-OH; N-terminus and C-terminus assumed), the Kb was above 6310 nM at B2 receptor [4] and 316 nM on B1 receptor.

On to `C[C@H](NC(=O)[C@H]1Cc2ccccc2CN1C(=O)[C@H](CO)NC(=O)[C@H](Cc1ccccc1)NC(=O)CNC(=O)[C@@H]1CCCN1C(=O)[C@@H]1CCCN1C(=O)[C@H](CCCNC(=N)N)NC(=O)[C@H](N)CCCNC(=N)N)C(=O)O` [Compound 15, D-Arg(D-Tic^7, Ala^8)desArg^9BK] (H-[dR]RPPGFS[dTic]A-OH; N-terminus and C-terminus assumed), for which the Kb on B1 receptor is above 9550 nM. In addition, the “Rb.J.V. pA2” value on B2 receptor [2] is “Inactive”. In data set [3], this molecule registered a metabolised at 0.5 h of 21 ± 1%.

For the molecule `N=C(N)NCCC[C@@H](N)C(=O)N[C@@H](CCCNC(=N)N)C(=O)N1CCC[C@H]1C(=O)N1C[C@H](O)C[C@H]1C(=O)NCC(=O)N[C@@H](Cc1ccccc1)C(=O)N[C@@H](CO)C(=O)N1Cc2ccccc2C[C@@H]1C(=O)N[C@@H](Cc1ccccc1)C(=O)O` [Compound 16, D-Arg(Hyp^3, D-Tic^7)desArg^9BK] (H-[dR]RP[Hyp]GFS[dTic]F-OH; N-terminus and C-terminus assumed), the Kb on B2 receptor [4] is above 2190 nM; on B1 receptor it was 186 nM. This molecule also gave a metabolised at 0.5 h in data set [3] of 0%.

`N=C(N)NCCC[C@H](N)C(=O)N1CCC[C@H]1C(=O)N1C[C@H](O)C[C@H]1C(=O)NCC(=O)N[C@@H](Cc1cccs1)C(=O)N[C@@H](CO)C(=O)N1Cc2ccccc2C[C@@H]1C(=O)N1[C@H](C(=O)O)C[C@@H]2CCCC[C@@H]21` [Compound 32, (Hyp^3, Thi^5, D-Tic^7, Oic^8)desArg^9BK, reference compound] (H-RP[Hyp]G[2Thi]S[dTic][Oic]-OH; N-terminus and C-terminus assumed): the results for the Kb at B2 receptor [4], on B1 receptor and at B2 receptor [1] were 447 nM, 479 nM and above 7590 nM, respectively. In data set [3], this molecule returned a metabolised at 0.5 h of 0%.
